Assay results from PubChem BioAssay (NCI).
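The compound was tested at five concentrations on cells cultured in 96-well plates, with a 48-hour exposure period. GI50 is the concentration that inhibits growth by half. TGI denotes the concentration required for complete inhibition of growth.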

How the values were obtained:
Experiment in all cases: growth of human tumour cells (NCI), 48 h
UACC-257 melanoma = system: UACC-257 melanoma
ACHN renal = system: ACHN renal
SF-539 CNS = system: SF-539 CNS
OVCAR-8 ovarian = system: OVCAR-8 ovarian
OVCAR-5 ovarian = system: OVCAR-5 ovarian
SR leukemia = system: SR leukemia
U251 CNS = system: U251 CNS
RXF 393 renal = system: RXF 393 renal
SF-268 CNS = system: SF-268 CNS
IGROV1 ovarian = system: IGROV1 ovarian
CCRF-CEM leukemia = system: CCRF-CEM leukemia
NCI-H226 lung = system: NCI-H226 lung
SNB-19 CNS = system: SNB-19 CNS
SK-MEL-2 melanoma = system: SK-MEL-2 melanoma
PC-3 prostate = system: PC-3 prostate
HOP-92 NSCLC = system: HOP-92 NSCLC
OVCAR-4 ovarian = system: OVCAR-4 ovarian
NCI-H23 lung = system: NCI-H23 lung
COLO 205 colon = system: COLO 205 colon
UACC-62 melanoma = system: UACC-62 melanoma
MDA-MB-231 breast = system: MDA-MB-231 breast
NCI-H460 lung = system: NCI-H460 lung
SK-MEL-28 melanoma = system: SK-MEL-28 melanoma
HCT-15 colon = system: HCT-15 colon
SF-295 CNS = system: SF-295 CNS
T-47D breast = system: T-47D breast
MOLT-4 leukemia = system: MOLT-4 leukemia
MALME-3M melanoma = system: MALME-3M melanoma
DU-145 prostate = system: DU-145 prostate
SK-OV-3 ovarian = system: SK-OV-3 ovarian
CAKI-1 renal = system: CAKI-1 renal
RPMI-8226 leukemia = system: RPMI-8226 leukemia
OVCAR-3 ovarian = system: OVCAR-3 ovarian
MDA-MB-435 = system: MDA-MB-435
TK-10 renal = system: TK-10 renal
BT-549 breast = system: BT-549 breast
HOP-62 NSCLC = system: HOP-62 NSCLC
786-0 renal = system: 786-0 renal
HCC-2998 colon = system: HCC-2998 colon
M14 melanoma = system: M14 melanoma
K-562 leukemia = system: K-562 leukemia
SNB-75 CNS = system: SNB-75 CNS
HT29 colon = system: HT29 colon
SN12C renal = system: SN12C renal
A498 renal = system: A498 renal
NCI/ADR-RES ovarian = system: NCI/ADR-RES ovarian
UO-31 renal = system: UO-31 renal
NCI-H522 lung = system: NCI-H522 lung
SK-MEL-5 melanoma = system: SK-MEL-5 melanoma
KM12 colon = system: KM12 colon
A549 NSCLC = system: A549 NSCLC
HS 578T breast = system: HS 578T breast
HL-60(TB) leukemia = system: HL-60(TB) leukemia

Compound: O=C1NC(=NCCc2cccc(Cl)c2)S/C1=C\c1ccc2ncccc2c1
- GI50 (UACC-257 melanoma): > 25 µM
- TGI (UACC-257 melanoma): > 25 µM
- GI50 (ACHN renal): > 25 µM
- TGI (ACHN renal): > 25 µM
- GI50 (SF-539 CNS): > 25 µM
- TGI (SF-539 CNS): > 25 µM
- GI50 (OVCAR-8 ovarian): > 25 µM
- TGI (OVCAR-8 ovarian): > 25 µM
- GI50 (OVCAR-5 ovarian): > 25 µM
- TGI (OVCAR-5 ovarian): > 25 µM
- GI50 (SR leukemia): 0.403 µM
- TGI (SR leukemia): > 25 µM
- GI50 (U251 CNS): > 25 µM
- TGI (U251 CNS): > 25 µM
- GI50 (RXF 393 renal): > 25 µM
- TGI (RXF 393 renal): > 25 µM
- GI50 (SF-268 CNS): > 25 µM
- TGI (SF-268 CNS): > 25 µM
- GI50 (IGROV1 ovarian): > 25 µM
- TGI (IGROV1 ovarian): > 25 µM
- GI50 (CCRF-CEM leukemia): > 25 µM
- TGI (CCRF-CEM leukemia): > 25 µM
- GI50 (NCI-H226 lung): > 25 µM
- TGI (NCI-H226 lung): > 25 µM
- GI50 (SNB-19 CNS): > 25 µM
- TGI (SNB-19 CNS): > 25 µM
- GI50 (SK-MEL-2 melanoma): > 25 µM
- TGI (SK-MEL-2 melanoma): > 25 µM
- GI50 (PC-3 prostate): > 25 µM
- TGI (PC-3 prostate): > 25 µM
- GI50 (HOP-92 NSCLC): > 25 µM
- TGI (HOP-92 NSCLC): > 25 µM
- GI50 (OVCAR-4 ovarian): > 25 µM
- TGI (OVCAR-4 ovarian): > 25 µM
- GI50 (NCI-H23 lung): > 25 µM
- TGI (NCI-H23 lung): > 25 µM
- GI50 (COLO 205 colon): > 25 µM
- TGI (COLO 205 colon): > 25 µM
- GI50 (UACC-62 melanoma): > 25 µM
- TGI (UACC-62 melanoma): > 25 µM
- GI50 (MDA-MB-231 breast): > 25 µM
- TGI (MDA-MB-231 breast): > 25 µM
- GI50 (NCI-H460 lung): > 25 µM
- TGI (NCI-H460 lung): > 25 µM
- GI50 (SK-MEL-28 melanoma): > 25 µM
- TGI (SK-MEL-28 melanoma): > 25 µM
- GI50 (HCT-15 colon): 1.08 µM
- TGI (HCT-15 colon): > 25 µM
- GI50 (SF-295 CNS): > 25 µM
- TGI (SF-295 CNS): > 25 µM
- GI50 (T-47D breast): > 25 µM
- TGI (T-47D breast): > 25 µM
- GI50 (MOLT-4 leukemia): > 25 µM
- TGI (MOLT-4 leukemia): > 25 µM
- GI50 (MALME-3M melanoma): > 25 µM
- TGI (MALME-3M melanoma): > 25 µM
- GI50 (DU-145 prostate): > 25 µM
- TGI (DU-145 prostate): > 25 µM
- GI50 (SK-OV-3 ovarian): > 25 µM
- TGI (SK-OV-3 ovarian): > 25 µM
- GI50 (CAKI-1 renal): > 25 µM
- TGI (CAKI-1 renal): > 25 µM
- GI50 (RPMI-8226 leukemia): > 25 µM
- TGI (RPMI-8226 leukemia): > 25 µM
- GI50 (OVCAR-3 ovarian): > 25 µM
- TGI (OVCAR-3 ovarian): > 25 µM
- GI50 (MDA-MB-435): 0.635 µM
- TGI (MDA-MB-435): > 25 µM
- GI50 (TK-10 renal): > 25 µM
- TGI (TK-10 renal): > 25 µM
- GI50 (BT-549 breast): > 25 µM
- TGI (BT-549 breast): > 25 µM
- GI50 (HOP-62 NSCLC): > 25 µM
- TGI (HOP-62 NSCLC): > 25 µM
- GI50 (786-0 renal): > 25 µM
- TGI (786-0 renal): > 25 µM
- GI50 (HCC-2998 colon): > 25 µM
- TGI (HCC-2998 colon): > 25 µM
- GI50 (M14 melanoma): > 25 µM
- TGI (M14 melanoma): > 25 µM
- GI50 (K-562 leukemia): 1.17 µM
- TGI (K-562 leukemia): > 25 µM
- GI50 (SNB-75 CNS): > 25 µM
- TGI (SNB-75 CNS): > 25 µM
- GI50 (HT29 colon): > 25 µM
- TGI (HT29 colon): > 25 µM
- GI50 (SN12C renal): > 25 µM
- TGI (SN12C renal): > 25 µM
- GI50 (A498 renal): > 25 µM
- TGI (A498 renal): > 25 µM
- GI50 (NCI/ADR-RES ovarian): > 25 µM
- TGI (NCI/ADR-RES ovarian): > 25 µM
- GI50 (UO-31 renal): > 25 µM
- TGI (UO-31 renal): > 25 µM
- GI50 (NCI-H522 lung): > 25 µM
- TGI (NCI-H522 lung): > 25 µM
- GI50 (SK-MEL-5 melanoma): > 25 µM
- TGI (SK-MEL-5 melanoma): > 25 µM
- GI50 (KM12 colon): 1.32 µM
- TGI (KM12 colon): > 25 µM
- GI50 (A549 NSCLC): > 25 µM
- TGI (A549 NSCLC): > 25 µM
- GI50 (HS 578T breast): > 25 µM
- TGI (HS 578T breast): > 25 µM
- GI50 (HL-60(TB) leukemia): > 25 µM
- TGI (HL-60(TB) leukemia): > 25 µM
